The subject of one series is Barrett's neoplasia. Particulars: topical to mucosal surface, clinic, ref [19], [20], cited from earlier work. The protocol:
An empiric peptide labeled with FITC was administered topically to the mucosal surface. Early neoplasia was detected with 94% specificity and 96% positive predictive value. Included in the analysis were 28 flat lesions (Paris 0-IIb) that were poorly visualized with white light. […] Peptides have high diversity, and can achieve high specificity with binding affinities on the ...

Series [1] concerns FGFR2b, AKT, ERK phosphorylation in QhTERT cells. Briefly: Western blot, effect of peptide binding on cell signaling, QhTERT cells expressing FGFR2b. In kind it is cell-based, human. Particulars: 20 min. Here is the method: (§1) QhTERT cells that overexpress either FGFR2b or FGFR2c were seeded in 12-well flat-bottom plates with 500 μL of serum-free medium for 16 hours. FGF1 (#2232-FA-025, R&D systems) was reconstituted to a concentration of 100 μg/mL using PBS, diluted with 0.1% bovine serum albumin, and added to the cells at final concentrations of 100 ng/mL for 20 min in separate wells. Heparin (# H3149-10KU, Sigma) with final concentration of 100 units/mL was also added to increase stability. In addition, peptides at concentrations of 5 and 100 μM were incubated for 20 min in separate wells. The cells were washed with PBS and lysed in RIPA buffer containing protease inhibitors (#11836170001, Roche, Basel, Switzerland). Lysates were separated by gel electrophoresis, transferred to polyvinylidene difluoride membranes (#ISEQ00010, Millipore), and detected by immunoblotting using an enhanced chemiluminescence system (#RPN2106, GE Healthcare). Anti-FGFR2 antibody (#SC122, Santa Cruz Biotechnology), anti-phospho-FGFR (#3471, Cell Signaling Technology), anti-AKT (#4691P, Cell Signaling Technology), anti-ERK1/2 (#4695P, Cell Signaling Technology), anti-phospho-AKT (pS473; #4060P, Cell Signaling Technology), anti-phospho-ERK1/2 (#4370P, Cell Signaling Technology), and anti-tubulin (#32–2600, Invitrogen) were used as per manufacturer's instructions.
(In general: Immunoblotting shows a protein as a band on a membrane.)

The subject of series [2] is FGFR2c, AKT, ERK phosphorylation in QhTERT cells. Nature of the series: Western blot, effect of peptide binding on cell signaling, QhTERT cells expressing FGFR2c. In kind it is cell-based, human. Particulars: 20 min. The protocol: as §1
For series [3], the system named is QhTERT cells that express FGFR2c. Briefly: Competition for binding of SRR^*-Cy5.5 with unlabeled peptide, confocal microscopy. Particulars: 30 min at 4°C, then 5 μM SRR^*-Cy5.5, 30 min at 4°C. Type of series: cell-based, human. Here is the method: Specific peptide binding to QhTERT/FGFR2c was validated on competitive inhibition with addition of unlabeled peptide. ~10^3 cells were grown to ~70% confluence on cover glass in triplicate. Unlabeled peptides at concentrations of 0, 50, 100, 150, 250, and 500 μM were incubated with the cells for 30 min at 4°C. The cells were washed and incubated with 5 μM of the target peptide for another 30 min at 4°C. The cells were washed and fixed with 4% PFA for 5 min. The cells were washed with PBS and mounted with ProLong Gold reagent containing DAPI (Invitrogen).

A short description of series [4]: Fluorescence spectra of Cy5.5-labeled peptides. Type of series: physicochemical. Particulars: 10 μM in PBS, excitation λex = 671 nm. From the text:
We synthesized the 12 amino acid sequence SRRPASFRTARE (black) and attached the fluorophore Cy5.5 (red) via a GGGSK linker (blue) on the C-terminus, hereafter SRR^*-Cy5.5, Figure 1A. Cy5.5 was chosen for photostability and high quantum yield in the near-infrared (NIR) spectrum. We used a linker to prevent steric hindrance of the peptide by the dye. We then used a structural model (1EV2), [24] […] This domain is the same in either isoform FGFR2IIIb or FGFR2IIIc. We also used this model to develop a scrambled sequence SPSRERTFRARA for a control, Figure 1C. This peptide was also labeled with Cy5.5 via a GGGSK linker, hereafter SPS^*-Cy5.5. For SPS^*-Cy5.5, we calculated Et = −277.37. […] We purified SRR^*-Cy5.5 and […] to >97% on HPLC, and measured an experimental mass-to-charge (m/z) ratio on mass spectrometry of 2385.31 for both peptides that agreed with the expected value, Supplementary Figure 3.
Figure 1 Peptide specific for FGFR2 Chemical structure is shown for 12 amino acid (aa) peptide sequence (A) SRRPASFRTARE (SRR^*) found to be specific for FGFR2, and (B) scrambled peptide SPSRERTFRARA (SPS^*) used for control. A Cy5.5 fluorophore (red) is attached via a GGGSK linker (blue) to prevent steric hindrance.

Series [5] deals with QhTERT cells that express FGFR2c. Briefly: Confocal fluorescence microscopy, binding to QhTERT cells that express FGFR2c. In kind it is cell-based, human. Particulars: 1 μM peptide, 10 min at RT; confocal, 63X. From the text: (§2) All human esophageal specimens were obtained with written, informed patient consent per approval and guidelines of the University of Michigan Institutional Review Board (IRB). Human non-dysplastic Barrett's esophagus (BE) cells immortalized with hTert (QhTERT) were obtained from the American Type Culture Collection (ATCC) and cultured in keratinocyte-serum free medium containing bovine pituitary extract and human recombinant EGF (ThermoFisher #17005042). QhTERT cells with stable expression of FGFR2b or FGFR2c were provided (DGB). We cultured these cells with keratinocyte-serum free medium containing bovine pituitary extract and human recombinant EGF (ThermoFisher #17005042) and added 1 μg/mL of puromycin-dihydrochloride (Invitrogen #A11138-03). All cells were cultured at 37°C in 5% CO2, and were passaged using 0.25% EDTA containing trypsin (Mediatech Inc). A hemocytometer was used to determine cell number. Peptide synthesis reagents were obtained from either Anaspec or AAPPTEC with the highest grade available (>99% purity) and used without further purification. Solvents and other chemical reagents were obtained from Sigma-Aldrich, unless otherwise stated.
(§3) ~10^3 QhTERT/wt, QhTERT/FGFR2b, and QhTERT/FGFR2c cells were grown on cover glass to ~80% confluence. The cells were washed with PBS 1X and incubated with 1 μM of either peptide for 10 min at RT. The cells were then washed 3X in PBS, fixed with 4% paraformaldehyde (PFA) for 5 min, washed 1X with PBS, and then mounted on glass slides with ProLong Gold reagent containing DAPI (Invitrogen). Confocal fluorescence images were collected with Cy5.5 and DAPI filters (Leica Inverted SP5X 2-Photon FLIM confocal microscopes) using a 63X oil-immersion objective. Fluorescence intensities from 3 cells in each of 3 independent images were quantified using custom Matlab (Mathworks) software.

Another series has as its system QhTERT wild-type cells. Nature of the series: Confocal fluorescence microscopy, binding to wild-type QhTERT cells. Type of series: cell-based, human. Particulars: 1 μM peptide, 10 min at RT, 63X.
Excerpt: as §2, with “Peptide synthesis reagents were obtained from either Anaspec or AAPPTEC with the highest grade available (>99% purity) and used without further purification. Solvents and other chemical reagents were obtained from Sigma-Aldrich, unless otherwise stated.” left out
~10^3 QhTERT/wt, QhTERT/FGFR2b, and QhTERT/FGFR2c cells were grown on cover glass to ~80% confluence. […] Confocal fluorescence images were collected with Cy5.5 and DAPI filters (Leica Inverted SP5X 2-Photon FLIM confocal microscopes) using a 63X oil-immersion objective. Fluorescence intensities from 3 cells in each of 3 independent images were quantified using custom Matlab (Mathworks) software.

In series [6] the test system is QhTERT cells that express FGFR2b. Nature of the series: Confocal fluorescence microscopy, binding to QhTERT cells that express FGFR2b. In kind it is cell-based, human. Particulars: 1 μM peptide, 10 min at RT; confocal, 63X.
Excerpt: as §2, §3

A further series deals with T1, FGFR2c on QhTERT cells (UniProt P21802-1 22-821).
T1 construct: fibroblast growth factor receptor 2, isoform IIIc (C-terminus of D3 encoded by exon 9), stably expressed in human QhTERT cells; also called FGFR2IIIc; isoform IIIc of FGFR2
Nature of the series: flow cytometry on cells; apparent dissociation constant; Cy5.5-labeled peptide 0 to 200 nM in 25 nM increments in PBS, ~10^5 QhTERT/FGFR2c cells, 4°C for 1 hour, mean fluorescence intensity. Particulars: one partner purified. (In general: In flow cytometry, cells or beads pass a laser one at a time.)

Setting [7] is: FGF1 100 ng/mL, heparin 100 units/mL.

No end group written: not given here. Cy5.5 = near-infrared fluorophore Cy5.5 Bounds are passed on as bounds.

T1 sequence (P21802 22-821): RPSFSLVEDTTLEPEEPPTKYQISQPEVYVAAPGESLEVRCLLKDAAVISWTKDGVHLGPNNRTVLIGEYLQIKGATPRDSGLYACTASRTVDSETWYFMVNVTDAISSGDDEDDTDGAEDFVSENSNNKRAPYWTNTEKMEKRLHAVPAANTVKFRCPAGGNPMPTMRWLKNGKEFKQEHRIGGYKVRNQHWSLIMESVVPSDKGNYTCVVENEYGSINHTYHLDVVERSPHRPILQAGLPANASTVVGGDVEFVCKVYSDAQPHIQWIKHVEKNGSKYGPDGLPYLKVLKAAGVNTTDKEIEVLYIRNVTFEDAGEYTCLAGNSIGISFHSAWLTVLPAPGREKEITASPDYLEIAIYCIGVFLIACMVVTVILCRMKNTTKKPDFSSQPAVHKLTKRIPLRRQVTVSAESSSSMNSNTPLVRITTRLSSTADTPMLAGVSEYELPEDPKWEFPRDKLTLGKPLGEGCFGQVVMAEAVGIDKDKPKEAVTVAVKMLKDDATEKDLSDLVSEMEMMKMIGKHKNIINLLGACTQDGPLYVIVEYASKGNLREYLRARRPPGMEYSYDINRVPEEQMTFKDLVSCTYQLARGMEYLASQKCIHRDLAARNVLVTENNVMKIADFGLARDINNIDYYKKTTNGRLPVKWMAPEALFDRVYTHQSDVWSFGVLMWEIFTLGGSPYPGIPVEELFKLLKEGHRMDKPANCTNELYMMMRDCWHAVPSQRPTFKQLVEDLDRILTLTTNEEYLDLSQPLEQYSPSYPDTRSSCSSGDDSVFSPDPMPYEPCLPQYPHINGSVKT

Turning to “ASYNYDA [empiric peptide labeled with FITC, 7 amino acid peptide ASYNYDA that was labeled with FITC]”, in the series on Barrett's neoplasia (included 28 flat lesions), the “positive predictive value, early neoplasia detection” value is 96% and the “specificity, early neoplasia detection” value is 94%. Besides, in the series with Barrett's neoplasia, the time of binding is on record as not above 5 min.

In the case of “FGF1: FGF1 (#2232-FA-025, R&D systems), positive control [reference compound]”, the entries for the “phosphorylation of FGFR2 (p-FGFR), AKT (p-AKT) and ERK (p-ERK), positive control” value in series [1] (setting [7]) and in series [2] (setting [7]) were “to some extent” and “strong phosphorylation activity”, respectively.

Consider “SPSRERTFRARA [SPS^*, unlabeled scrambled peptide … used for control]”, for which the “mean fluorescence intensity of SRR^*-Cy5.5 with unlabeled control peptide” value in series [3] (unlabeled SPS^* at any concentration (0, 50, 100, 150, 250, 500 μM)) is recorded as “No significant difference”.

Turning to SPSRERTFRARA [SPS^*-Cy5.5], in series [4], the “peak emission λem” value is recorded as 710 nm. Also, the “cell surface fluorescence signal / binding” value (in [5]; in the series with QhTERT wild-type cells; in series [6]) was “Minimal binding” in each case.

As to “SRRPASFRTARE [SRR^*, unlabeled 12 amino acid peptide … specific for FGFR2]”, the “mean fluorescence intensity of SRR^*-Cy5.5 with unlabeled target peptide” value in series [3] (unlabeled SRR^* at 50 μM and greater vs 0 μM) is listed as “significant reduction”. The “phosphorylation of FGFR2 (p-FGFR), AKT (p-AKT) and ERK (p-ERK)” value in [1] (peptide at 5 or 100 μM) and in series [2] (peptide at 5 or 100 μM) was “no change in phosphorylation” throughout.

B1: SRR*-Cy5.5 (peptide)
peptide: SRRPASFRTAREGGGSK(Cy5.5)-NH2
notes: 12-residue peptide selected by phage display (Ph.D.-12 library) against FGFR2-ECD; linker on the C-terminus that carries the Cy5.5; Assembled on rink amide MBHA resin, so the C-terminus is probably an amide; also called FGFR2 peptide; source: synthetic peptide (Fmoc solid-phase synthesis, prep-HPLC, >97%)
As for B1, the Kd with FGFR2c on QhTERT cells is 68 nM.
